According to ChEMBL document CHEMBL1154502, “Small, non-peptide C5a receptor antagonists: part 2” (Bioorg Med Chem Lett, 2008):

Tests used:
[1] = biological target: T1, C5a anaphylatoxin chemotactic receptor 1 (Homo sapiens, UniProt P21730); assay: Antagonist activity at C5a receptor assessed as inhibition of C5a-induced elastase release in human neutrophils during degranulation preincubated 5 mins prior to C5a challenge using p-nitroanilide as substrate; type: functional
T1 sequence (P21730 whole entry): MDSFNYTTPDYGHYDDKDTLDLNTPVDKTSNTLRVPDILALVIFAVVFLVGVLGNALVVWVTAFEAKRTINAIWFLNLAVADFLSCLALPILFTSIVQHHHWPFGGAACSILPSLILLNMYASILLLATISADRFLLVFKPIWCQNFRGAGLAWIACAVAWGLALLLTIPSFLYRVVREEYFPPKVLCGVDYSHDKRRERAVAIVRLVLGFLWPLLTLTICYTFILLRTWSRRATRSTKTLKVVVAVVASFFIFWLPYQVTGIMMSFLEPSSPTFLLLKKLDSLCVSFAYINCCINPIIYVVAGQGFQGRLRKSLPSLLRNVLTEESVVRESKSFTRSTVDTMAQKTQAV

[2] = biological target: T1, C5a anaphylatoxin chemotactic receptor 1; assay: Displacement of [125I]C5a from C5a receptor in cAMP differentiated human U937 cells by filtration assay; type: cell-based, U-937
[3] = Octanol-neutral buffer distribution coefficient, log D at pH 7.4; type: physicochemical
[4] = biological target: T2, C5a anaphylatoxin chemotactic receptor 1 (Homo sapiens) (UniProt P21730); assay: Antagonist activity at C5a receptor assessed as total drug level required to induce 10-fold shift in C5a-stimulated CD11b upregulation in heparinised human whole blood preincubated 1 min prior to C5a challenge by dose-response curve analysis; type: functional, tissue-based
T2 sequence (whole entry): T1 sequence (P21730 whole entry)

[5] = biological target: T2, C5a anaphylatoxin chemotactic receptor 1 (Homo sapiens); assay: Antagonist activity at C5a receptor assessed as free drug level required to induce 10-fold shift in C5a-stimulated CD11b upregulation in heparinised human whole blood preincubated 1 min prior to C5a challenge by dose-response curve analysis; type: functional, tissue-based
[6] = biological target: T2, C5a anaphylatoxin chemotactic receptor 1 (Homo sapiens); assay: Binding affinity to C5a receptor assessed as total drug level required for translation of C5a-induced CD11b upregulation in heparinised human whole blood preincubated 1 min prior to C5a challenge by dose-response curve analysis; type: tissue-based
[7] = Dissociation constant, pKa of the compound; type: physicochemical
[8] = biological target: T2, C5a anaphylatoxin chemotactic receptor 1 (Homo sapiens); assay: Binding affinity to C5a receptor assessed as free drug level required for translation of C5a-induced CD11b upregulation in heparinised human whole blood preincubated 1 min prior to C5a challenge by dose-response curve analysis; type: tissue-based
[9] = Protein binding in human plasma; type: ADME, cell-free; settings: read-out: PPB (converted)
[10] = Lipophilicity, log D of the compound; type: physicochemical; settings: octanol/water

SMILES | IC50 [1] [µM] | IC50 [2] [µM] | logD [3] | also measured
COCC(Cc1ccc(Cl)cc1)N(C(=O)c1csc2ccccc12)C1CCC2(CC1)OCCO2 (racemic) | 0.027 | 0.012 | – | –
COc1cccc(-c2ncc(Cc3ccc(Cl)cc3)n2C2CCC3(CC2)OCCO3)c1 | – | > 1 | 4 | –
CCc1ccccc1C(=O)N(C1CCC2(CC1)OCCO2)C(Cc1ccc(Cl)cc1)CN(C)C (racemic) | 0.025 | 0.027 | > 5 | Activity [4]: 4.8 µM; Activity [5]: 17 nM; Activity [6]: 178 nM; pKa [7]: 7.4; Activity [8]: 0.63 nM; fraction unbound [9]: 0.004
O=C(Nc1ccc(F)cc1F)N1CCC(N(CCc2ccc(Cl)cc2)C(=O)c2csc3ccccc23)CC1 | – | – | – | logD [10]: < 4
Clc1ccc(Cc2cnc(-c3cccc4ccccc34)n2C2CCC3(CC2)OCCO3)cc1 | 0.877 | 0.09 | – | –
COC(=O)C(Cc1ccc(Cl)cc1)N(C(=O)c1csc2ccccc12)C1CCC2(CC1)OCCO2 (racemic) | 0.172 | 0.015 | – | –
CCc1ccccc1C(=O)N(C1CCC2(CC1)OCCO2)C(Cc1ccc(Cl)cc1)C(=O)O (racemic) | – | 0.35 | – | –
c1ccc2c(-c3ncc(CC4CCCCC4)n3C3CCC4(CC3)OCCO4)csc2c1 | 0.85 | 0.047 | – | –
CC(=O)C(Cc1ccc(Cl)cc1)N(C(=O)c1csc2ccccc12)C1CCC2(CC1)OCCO2 (racemic) | – | 0.045 | – | –
O=C(c1csc2ccccc12)N(C1CCC2(CC1)OCCO2)C(CO)Cc1ccc(Cl)cc1 (racemic) | – | > 1 | – | –
Clc1ccc(Cc2nnc(-c3cccc4ccccc34)n2C2CCC3(CC2)OCCO3)cc1 | – | > 1 | – | –
CCc1ccccc1C(=O)N(C1CCC2(CC1)OCCO2)C(Cc1ccc(Cl)cc1)c1noc(C)n1 (racemic) | 0.04 | 0.008 | > 5 | –
CCc1ccccc1C(=O)N(C1CCC2(CC1)OCCO2)[C@H](CCN(C)C)Cc1ccc(Cl)cc1 | – | > 1 | – | –
Clc1cccc2nc(-c3csc4ccccc34)n(C3CCC4(CC3)OCCO4)c12 | – | 0.325 | – | –
Clc1ccc2nc(-c3csc4ccccc34)n(C3CCC4(CC3)OCCO4)c2c1Cl | – | 0.79 | > 5 | –
CN(C)Cc1ccccc1C(=O)N(CCc1ccc(Cl)cc1)C1CCC2(CC1)OCCO2 | – | 0.5 | 3.3 | Activity [4]: > 10 µM; Activity [5]: > 40 nM; pKa [7]: 8.4; fraction unbound [9]: 0.004
CCc1ccccc1C(=O)N(C1CCC2(CC1)OCCO2)[C@H](CCN1CCOCC1)Cc1ccc(Cl)cc1 | – | 0.2 | 3.4 | Activity [4]: 4.4 µM; Activity [5]: 119 nM; Activity [6]: 22 nM; Activity [8]: 0.6 nM; fraction unbound [9]: 0.027
Clc1ccc(CC2CN=C(c3csc4ccccc34)N2C2CCC3(CC2)OCCO3)cc1 (centres undefined) | – | > 1 | – | –
CN(C)CC(Cc1ccc(Cl)cc1)N(C(=O)c1cccc2ccccc12)C1CCC2(CC1)OCCO2 (racemic) | 0.022 | 0.013 | 4.6 | –
Cc1nc(-c2csc3ccccc23)n(C2CCC3(CC2)OCCO3)c1Cc1ccc(Cl)cc1 | – | 0.09 | 4.6 | –
Clc1ccc(Cc2cnc(-c3csc4ccccc34)n2C2CCC3(CC2)OCCO3)cc1 | – | 0.5 | > 4 | –
CCOC(=O)C(Cc1ccc(Cl)cc1)N(C(=O)c1cccc2ccccc12)C1CCC2(CC1)OCCO2 (racemic) | 0.032 | 0.003 | – | –
